Reference: patent US12473250B2, “Molecular design of new antibiotics and antibiotic adjuvants against MCR strains” (priority 2019, dated 2025)

Experiments:
Type in all cases: cell-based
various pathogens = assay: microbe, parasite or virus in culture
Method: (§1) The MICs of the individual drugs and LC compound in combinations were determined using the broth microdilution technique as recommended by the CLSI whereby the two anti-microbial agents were added in an equal amount. (e.g.: 50 μL of Colistin: 50 μL of LC compounds). Diluted media containing compounds and antibiotics will be serially diluted 2-fold, and LC compounds and antibiotics alone or in combination will be assayed at fixed synergy concentration. In all cases, the lowest concentration at which no visible growth occurred was be recorded to be the MIC value of individual and combined antibacterial agents. The results were obtained after 24 hours of incubation.
Using the combination of LC100 and colistin, the activity of a broad range of strains was further tested (Table 7).

[1] = system: colistin resistant MCR (+) E. Coli strains; assay: MIC, broth microdilution, compound alone; conditions: colistin resistant bacteria; in words
Method: MIC experiments of the antimicrobial agents were determined by a modified broth microdilution method in accordance with the Clinical and Laboratory Standards Institute (CLSI) guidelines using 96 well culture plates. In brief, serial dilutions of all plates were prepared at different concentrations (μg). The inoculum suspension was prepared by adding isolated colonies from a 18-20 hours on TSA plate into phosphate buffer (0.31 mM, pH 7.2) or in water for injection (BBraun) and adjusting the suspension to a turbidity equivalent to 0.5 McFarland Standard. Each well contained a final bacterial concentration of approximately 5×10^5 colony forming units (CFU)/mL. The plate was covered and incubated at 35° C. for 24 hours. […] For the microdilution plates, turbidity in wells can be measured at OD600 using TECAN infinite M200Pro. MIC was determined as […] concentration that gives a 99 percent inhibition.

[2] = system: colistin resistant MCR (+) E. Coli strains; assay: Synergy study: colistin MIC in the presence of compound; conditions: against mcr-1 bacteria
Method: as §1

[3] = Escherichia coli, 6083655967 [MCR 1+, E. Coli]
[4] = Escherichia coli, 6093560257 [MCR 1+, E. Coli, NDM-1]
[5] = Escherichia coli, 7023446108 [MCR 1−, E. Coli]
[6] = Escherichia coli, 7103531927 [MCR 1+, E. Coli, KPC+]
[7] = Escherichia coli, 7113636863 [MCR 1+, E. Coli, NDM-1]
[8] = Escherichia coli, E. Coli CRE 11804
[9] = Escherichia coli, E. Coli CRE 17528
[10] = Escherichia coli, E. Coli CRE 17232

Compound | MIC (various pathogens; [3]) [µg/mL] | MIC (various pathogens; [4]) [µg/mL] | MIC (various pathogens; [5]) [µg/mL] | MIC (various pathogens; [6]) [µg/mL] | MIC (various pathogens; [7]) [µg/mL] | MIC (various pathogens; [8]) [µg/mL] | MIC (various pathogens; [9]) [µg/mL] | MIC (various pathogens; KLPN CRE 7955) [µg/mL] | MIC (various pathogens; KLPN CRE 16260) [µg/mL] | MIC (various pathogens; KLPN CRE 27025) [µg/mL] | MIC (various pathogens; KLPN CRE 55301) [µg/mL] | MIC (various pathogens; PAE DM 4150) [µg/mL] | MIC (various pathogens; PAE DM 23155) [µg/mL] | MIC (various pathogens; PAE DM 23257) [µg/mL] | MIC (various pathogens; PAE DM 23376) [µg/mL] | MIC (various pathogens; PAE DR 4877) [µg/mL] | MIC (various pathogens; PAE DU 14476) [µg/mL] | MIC (various pathogens; [10]) [µg/mL] | MIC (various pathogens; PAE DR 5790) [µg/mL] | other results
C[C@@H](O)[C@H]1C(=O)N2C(C(=O)O)=C(S[C@@H]3CN[C@H](CNS(N)(=O)=O)C3)[C@H](C)[C@H]12 [Doripenem] | < 0.0975 | 50 | 0.0975 | 1.56 | 25 | > 25 | 1.56 | > 25 | > 50 | 25 | 1.56 | 6.25 | 0.195 | 0.78 | 0.78 | 0.78 | > 25 | – | – | MIC (various pathogens; Escherichia coli, 6123520276 [MCR 1+, E. Coli]): < 0.0975 µg/mL; MIC (various pathogens; Escherichia coli, 7023436560 [MCR 1+, E. Coli]): < 0.0975 µg/mL; MIC (various pathogens; Escherichia coli, 7023444207 [MCR 1+, E. Coli]): < 0.0975 µg/mL; MIC (various pathogens; Escherichia coli, 7033607097 [MCR 1−, E. Coli]): < 0.0975 µg/mL; MIC (various pathogens; PAE DR 5790, ¼ MHB): 12.5 µg/mL
C[C@@H](O)[C@H]1C(=O)N2C(C(=O)O)=C(S[C@@H]3CN[C@H](C(=O)Nc4cccc(C(=O)O)c4)C3)[C@H](C)[C@H]12 [Ertapenem] | – | 25 | – | 12.5 | > 50 | 25 | > 25 | > 25 | > 50 | – | > 25 | > 25 | 12.5 | > 25 | > 25 | > 25 | > 25 | 1.56 | > 25 | –
CC1(C)C=Cc2c(ccc3c2OCC(c2ccc(OCCCCN(Cc4ccccn4)Cc4ccccn4)cc2OCCCCN(Cc2ccccn2)Cc2ccccn2)C3)O1 (stereo not drawn) [GLA-DPA] | – | – | – | – | – | – | – | – | – | – | – | – | – | – | – | – | – | – | – | antimicrobial activity when used alone [1]: limited antimicrobial activity; concentration at which the compound shows synergy with colistin [2]: 5 µg/mL; synergy with colistin ([2]; in words): restore the sensitivity of E. coli with mcr-1 to colistin
COc1c(N2CCNC(C)C2)c(F)cc2c(=O)c(C(=O)O)cn(C3CC3)c12 (stereo not drawn) [Gatifloxacin] | 12.5 | 0.78 | 3.12 | < 0.0975 | 50 | < 0.015 | 25 | 100 | 3.12 | 3.12 | 25 | – | 1.56 | 0.78 | 1.56 | 25 | 25 | 12.5 | 25 | MIC (various pathogens; ACBA 1003 (CI)): 12.5 µg/mL; MIC (various pathogens; ACBA 1004 (CI)): 12.5 µg/mL; MIC (various pathogens; ACBA 1005 (CI)): 6.25 µg/mL; MIC (various pathogens; ACBA 1006 (CI)): 6.25 µg/mL; MIC (various pathogens; ACBA 1010 (CI)): < 0.098 µg/mL; MIC (various pathogens; Escherichia coli, ATCC8739, E. Coli ATCC 8739): 0.024 µg/mL; MIC (various pathogens; Escherichia coli, ATCC10536, E. Coli ATCC 10536): 0.012 µg/mL; MIC (various pathogens; Escherichia coli, ATCC25922, E. Coli ATCC 25922): 0.012 µg/mL; MIC (various pathogens; Escherichia coli, E. Coli CRE 19211): 25 µg/mL; MIC (various pathogens; Escherichia coli, E. Coli CRE 34685): 0.195 µg/mL; MIC (various pathogens; KLPN ATCC 4352): < 0.049 µg/mL; MIC (various pathogens; KLPN ATCC 10031): < 0.049 µg/mL; MIC (various pathogens; KLPN ATCC 27736): < 0.049 µg/mL; MIC (various pathogens; KLPN CRE 15588): 25 µg/mL; MIC (various pathogens; PAE ATCC 9027): 0.78 µg/mL; MIC (various pathogens; PAE ATCC 27853): 1.56 µg/mL
